Results published in paper PMC3129366 (Chemico-biological interactions, 2011).
Each block holds one compound with its values, some of them ahead of it.

Assays:
Rabbit CYP2E1 = Rabbit CYP2E1 (Oryctolagus cuniculus, UniProt P08682); assay: Inhibition of p-nitrophenol hydroxylation by purified rabbit CYP2E1; format: biochemical
CYP2E1 [1] = biological target: CYP2E1 (Rattus norvegicus, UniProt P05182); assay: Inhibition of chlorzoxazone 6-hydroxylation in CYP2E1 liver microsomes; conditions: chlorzoxazone metabolism; for pKi: Log (1/Ki)
CYP2E1 (Rattus norvegicus, UniProt P05182), sequence (P05182 2-493): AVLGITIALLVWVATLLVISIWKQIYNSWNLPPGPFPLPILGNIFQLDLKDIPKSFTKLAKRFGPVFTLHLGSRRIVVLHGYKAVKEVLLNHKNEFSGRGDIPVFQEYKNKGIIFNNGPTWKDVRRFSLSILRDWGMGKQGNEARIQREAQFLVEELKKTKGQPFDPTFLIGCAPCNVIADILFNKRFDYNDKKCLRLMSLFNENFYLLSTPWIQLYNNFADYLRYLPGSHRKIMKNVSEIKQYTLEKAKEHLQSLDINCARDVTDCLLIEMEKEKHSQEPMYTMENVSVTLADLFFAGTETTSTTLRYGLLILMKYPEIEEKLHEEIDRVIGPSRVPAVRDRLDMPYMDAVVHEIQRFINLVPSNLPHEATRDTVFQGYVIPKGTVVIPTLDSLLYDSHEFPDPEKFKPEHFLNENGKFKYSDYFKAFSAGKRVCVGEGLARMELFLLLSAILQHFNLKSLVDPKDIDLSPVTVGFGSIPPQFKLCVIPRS

CYP2E1 [2] = biological target: T1, CYP2E1 (Rattus norvegicus, UniProt P05182, species not given); assay: in vitro; conditions: human, microsomes
T1 sequence (P05182 2-493): as above

CYP2E1 [3] = biological target: T1, CYP2E1; assay: Inhibition of chlorzoxazone 6-hydroxylation in CYP2E1 liver microsomes; conditions: human, microsomes, chlorzoxazone metabolism
[4] = Ki, substituted pyrazoles, purified rabbit CYP2E1, p-nitrophenol as substrate
[5] = pH 7.4, pKi±stdev, Table 3 test set

Rabbit CYP2E1, sequence (P08682 whole entry): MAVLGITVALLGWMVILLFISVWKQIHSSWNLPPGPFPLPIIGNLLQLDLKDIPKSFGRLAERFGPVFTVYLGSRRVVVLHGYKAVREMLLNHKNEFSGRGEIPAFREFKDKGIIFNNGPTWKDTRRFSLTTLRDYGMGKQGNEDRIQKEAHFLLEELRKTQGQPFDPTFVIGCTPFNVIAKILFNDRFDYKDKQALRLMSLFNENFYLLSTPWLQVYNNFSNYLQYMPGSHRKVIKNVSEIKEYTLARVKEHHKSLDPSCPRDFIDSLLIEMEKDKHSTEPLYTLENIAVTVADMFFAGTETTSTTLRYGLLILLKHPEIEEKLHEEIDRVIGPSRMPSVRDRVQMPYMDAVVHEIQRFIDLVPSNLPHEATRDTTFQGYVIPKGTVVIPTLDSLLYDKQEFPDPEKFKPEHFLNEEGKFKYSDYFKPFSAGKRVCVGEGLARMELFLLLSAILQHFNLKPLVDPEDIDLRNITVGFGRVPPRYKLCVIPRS

Ki (Rabbit CYP2E1; [4]): 5750 µM
Compound: CC(=O)Nc1cn[nH]c1 [4-acetylaminopyrazole]

Compound: c1cn[nH]c1 [pyrazole]
pKi (CYP2E1 [1]): 4.4

Ki (Rabbit CYP2E1; [4]): 5.4 µM
Compound: Cc1cc[nH]n1 [3-methylpyrazole]

Ki at 10 min (CYP2E1 [2]; pH 7.4, Ki): 218 µM
Ki at 10 min (CYP2E1 [2]; pH 7.4, pKi): 200 µM
Compound: Oc1ccc2ncccc2c1 [6-hydroxyquinoline]

Ki (Rabbit CYP2E1; [4]): 3 µM
Compound: Cc1n[nH]cc1Br [4-bromo-3-methylpyrazole]

Compound: Cc1cccc(C)n1 [2,6-lutidine]
Ki at 10 min (CYP2E1 [3]; pH 7.4, pKi, Log (1/Ki)): 398 µM

Compound: O=[N+]([O-])c1c[nH]cn1 [4-nitroimidazole]
Ki at 10 min (CYP2E1 [3]; pH 7.4, pKi, Log (1/Ki)): 12.6 µM
Ki at 10 min (CYP2E1 [3]; [5]): 12.6 µM

Compound: c1ccc2ncccc2c1 [quinoline]
Ki at 10 min (CYP2E1 [3]; pH 7.4, pKi, Log (1/Ki)): 63.1 µM
Ki at 10 min (CYP2E1 [3]; [5]): 63.1 µM

Compound: OCc1c[nH]cn1 [4-hydroxymethylimidazole]
Ki at 10 min (CYP2E1 [3]; pH 7.4, pKi, Log (1/Ki)): 501 µM

Ki (Rabbit CYP2E1; [4]): 1 µM
Compound: Ic1cn[nH]c1 [4-iodopyrazole]

Compound: Cc1cnc2ccccc2c1 [3-methylquinoline]
Ki at 10 min (CYP2E1 [3]; pH 7.4, pKi, Log (1/Ki)): 100 µM

Compound: COC(=O)c1cccnc1 [methyl nicotinate]
Ki at 10 min (CYP2E1 [3]; pH 7.4, pKi, Log (1/Ki)): 20 µM

Compound: Oc1cccc2cccnc12 [8-hydroxyquinoline]
Ki at 10 min (CYP2E1 [3]; pH 7.4, pKi, Log (1/Ki)): 79.4 µM

Compound: O=C(n1ccnc1)C(F)(F)F [1-(trifluoroacetyl)-imidazole]
Ki at 10 min (CYP2E1 [3]; pH 7.4, pKi, Log (1/Ki)): 251 µM

Ki (Rabbit CYP2E1; [4]): 21 µM
Compound: O=[N+]([O-])c1cn[nH]c1 [4-nitropyrazole]

Ki (Rabbit CYP2E1; [4]): 0.16 µM
Ki (Rabbit CYP2E1; pKi±stdev, Table 3 test set, substituted pyrazole, purified rabbit CYP2E1, p-nitrophenol): 0.158 µM
Compound: CCCc1cn[nH]c1 [4-propylpyrazole]

Compound: COC(=O)c1ccncc1 [methyl isonicotinate]
pKi (CYP2E1 [1]): 5.6
pKi±stdev (CYP2E1 [1]; Table 3 test set): 5.6±0.1

Ki at 10 min (CYP2E1 [2]; pH 7.4, Ki): 931 µM
Ki at 10 min (CYP2E1 [2]; pH 7.4, pKi): 1000 µM
Ki at 10 min (CYP2E1 [2]; pH 7.4, pKi±stdev): 1000 µM
Compound: Oc1ccc2ccccc2n1 [2-hydroxyquinoline]

Ki (Rabbit CYP2E1; [4]): 0.06 µM
Compound: CCCCCc1cn[nH]c1 [4-pentylpyrazole]

Compound: Cn1ccnc1 [1-methylimidazole]
Ki at 10 min (CYP2E1 [3]; pH 7.4, pKi, Log (1/Ki)): 6.31 µM

Compound: CCCCn1ccnc1 [N-(n-butyl)imidazole]
pKi (CYP2E1 [1]): 6.2

pKi (Rabbit CYP2E1; Log (1/Ki), substituted pyrazoles, purified rabbit CYP2E1, p-nitrophenol): 6.1
Ki (Rabbit CYP2E1; substituted pyrazoles, purified rabbit CYP2E1, p-nitrophenol as substrate): 0.79 µM
Compound: CCCOc1cn[nH]c1 [4-O-propylpyrazole]

Ki at 10 min (CYP2E1 [2]; pH 7.4, Ki): 592 µM
Ki at 10 min (CYP2E1 [2]; pH 7.4, pKi): 631 µM
Compound: Oc1ccnc2ccccc12 [4-hydroxyquinoline]

Compound: c1ccncc1 [pyridine]
Ki at 10 min (CYP2E1 [3]; pH 7.4, pKi, Log (1/Ki)): 12.6 µM
